Source: PubChem BioAssay (NCI)
Several values for one entry are separate records, joined by “and”; a condition that tells them apart may be missing. Equal values may be shown once.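 Tested at 5 concentrations; 48 h exposure; 96-well plates; endpoints linearly interpolated, else capped at highest concentration. Abbreviation: GI50, concentration required for 50% inhibition of growth. TGI: concentration producing complete growth inhibition.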

Tests used:
Experiment in all cases: NCI tumour cell line growth inhibition, 48 h
A549 NSCLC = test system: A549 NSCLC
COLO 205 colon = test system: COLO 205 colon
DMS 114 small cell lung = test system: DMS 114 small cell lung
DMS 273 small cell lung = test system: DMS 273 small cell lung
K-562 leukemia = test system: K-562 leukemia
NCI-H522 lung = test system: NCI-H522 lung
SNB-19 CNS = test system: SNB-19 CNS
BT-549 breast = test system: BT-549 breast
DU-145 prostate = test system: DU-145 prostate
MDA-MB-435 = test system: MDA-MB-435

Row | SMILES | TGI (A549 NSCLC) | TGI (COLO 205 colon) | TGI (DMS 114 small cell lung) | TGI (DMS 273 small cell lung) | TGI (K-562 leukemia) | TGI (NCI-H522 lung) [µM] | TGI (SNB-19 CNS) [µM] | TGI (BT-549 breast) [µM] | GI50 (DMS 114 small cell lung) | TGI (DU-145 prostate) [µM] | GI50 (K-562 leukemia) | TGI (MDA-MB-435) [µM] | GI50 (A549 NSCLC) [µM] | GI50 (COLO 205 colon) [µM] | GI50 (DMS 273 small cell lung) [µM] | GI50 (NCI-H522 lung) [µM] | GI50 (SNB-19 CNS) [µM]
1 | Cc1cc([N+](=O)[O-])ccc1Nc1cccc(Cl)c1C | 40.2 µM | 31.3 µM | 28.9 µM | 28.5 µM | 33.8 µM | 31 | 42.9 |  |  |  |  |  |  |  |  |  | 
2 | [N-]=[N+]=NC12CC3C4CC5CC3C(C1)C(C5)C4C2 | > 100 µM | > 100 µM | > 100 µM | > 100 µM | > 100 µM | > 100 | > 100 |  |  |  |  |  |  |  |  |  | 
3 | O=[N+]([O-])c1ccc(C2=Nn3cnnc3SC2)o1 | 56.7 µM |  | 28.8 µM | 36.3 µM | 42.3 µM |  | 79 |  |  |  |  |  |  |  |  |  | 
4 | COc1cccc(/C=C/c2cc(OC)c(OC)c(OC)c2)c1 | > 100 µM | > 100 µM | > 100 µM | > 100 µM | > 100 µM | > 100 | > 100 |  |  |  |  |  |  |  |  |  | 
5 | COC(=O)c1cc2c(s1)C(=O)c1ccccc1-2 | > 100 µM | > 100 µM | > 100 µM | > 100 µM | > 100 µM | > 100 | > 100 |  |  |  |  |  |  |  |  |  | 
6 | S=C(Nc1ccccc1)N(/N=C/C=C/c1ccccc1)c1nnc(-c2ccccc2)c(-c2ccccc2)n1 | > 100 µM | > 100 µM | > 100 µM | > 100 µM | > 100 µM | > 100 | > 100 |  |  |  |  |  |  |  |  |  | 
7 | O=C1c2cccc(NCCCNCCO)c2C(=O)c2cccc(NCCCNCCO)c21 | 7.34 µM and 4.62 µM | 2.67 µM and 3.78 µM | 1.92 µM and 4.77 µM | 3.98 µM and 5.13 µM | 18.8 µM and 8.27 µM | 1.6 | 5.58 | 4.21 | 0.476 µM and 1.24 µM | 7.44 | 3.69 µM and 1.05 µM | 3.06 |  |  |  |  | 
8 | O=C(/C=C/c1ccccc1O)c1ccccc1O | > 100 µM | > 100 µM | > 100 µM | > 100 µM | > 100 µM | > 100 | > 100 |  |  |  |  |  |  |  |  |  | 
9 | C=C(c1nc2ccc(Cl)cc2[nH]c1=O)C(O)c1ccc(C(O)C(=O)c2nc3ccc(Cl)cc3[nH]c2=O)cc1 (stereo not drawn) | > 100 µM | > 100 µM | > 100 µM | > 100 µM | > 100 µM | > 100 | > 100 | > 100 |  | > 100 |  | > 100 |  |  |  |  | 
10 | CCC[CH2][Sn]1([CH2]CCC)[O]N=C(c2ccccc2)C(c2ccccc2)[O]1 (stereo not drawn) | 22.3 µM | 2.92 µM | 2.18 µM | 3.05 µM | 2.38 µM | 1.47 | 5.04 |  | 0.965 µM |  | 0.387 µM |  | 10.5 | 1.53 | 1.59 | 0.362 | 2.14
11 | CCCCC(C(=O)C(=O)NC1C2CC3CC(C2)CC1C3)C(=O)C(C)C (stereo not drawn) | > 100 µM | > 100 µM | > 100 µM | > 100 µM | > 100 µM | > 100 | > 100 |  |  |  |  |  |  |  |  |  | 
12 | COC(=O)C(=Cc1cc(OC)ccc1OC)C(=O)OC | 92 µM | 34.1 µM | 53.1 µM | > 100 µM | 53.6 µM | 34.4 | > 100 |  |  |  |  |  |  |  |  |  | 
13 | O=C(CCn1[nH]c(=O)c(Cl)c(Cl)c1=O)NO | > 100 µM | > 100 µM | > 100 µM | > 100 µM | > 100 µM | > 100 | > 100 |  |  |  |  |  |  |  |  |  | 
14 | Cc1ccc(Cc2c(=O)[nH]nc3ccccc23)cc1 | > 100 µM | > 100 µM | > 100 µM | > 100 µM | > 100 µM |  | > 100 |  |  |  |  |  |  |  |  |  | 
15 | Cc1ccc(S(=O)(=O)N(CC(=O)O)c2ccccc2)cc1 | > 100 µM | > 100 µM |  | > 100 µM | > 100 µM | > 100 | > 100 |  |  |  |  |  |  |  |  |  | 
16 | CC(C)c1ccccc1NC(=O)CCc1n[nH]c(=S)o1 | > 100 µM | 58.3 µM | > 100 µM | > 90.7 µM | > 73.1 µM | > 100 | > 100 |  |  |  |  |  |  |  |  |  | 
17 | CN(C)c1nc2ccccc2[nH]1 | > 100 µM | > 100 µM | > 100 µM | > 100 µM | > 100 µM | > 100 |  |  |  |  |  |  |  |  |  |  | 
18 | Cn1c2c(c3ccccc31)C1CCCCCCC1C1C(=O)OC(=O)C21 (stereo not drawn) | > 100 µM | > 100 µM | 75.2 µM | 42.7 µM | 75.3 µM |  | > 100 |  |  |  |  |  |  |  |  |  | 
19 | CCOc1ccccc1C=C1c2ccccc2C(=O)c2ccccc21 | > 100 µM | 17.4 µM | 15.9 µM | 15.7 µM | > 100 µM | 6.57 | > 100 |  |  |  |  |  |  |  |  |  | 
20 | CC1=C(C(=O)Nc2ccccc2)C(c2ccccc2)C(C(=O)Nc2ccccc2)=C(C)N1 | > 100 µM | > 100 µM | > 100 µM | > 100 µM |  | > 100 | > 100 |  |  |  |  |  |  |  |  |  | 
